The results in this text go back to patent US9273057B2 (Bristol-Myers Squibb Company, priority 2012, dated 2016).

The target of this assay is CK2A1 (CK2α/β) (Homo sapiens, UniProt P68400). Nature of the assay: CK2 kinase assay, CK2A1 (CK2α/β). The following applies: Table A; read-out: CK2A1 (CK2α/β) (IC50). Type of assay: biochemical.
CK2A1 (CK2α/β), sequence (P68400 whole entry, species assumed): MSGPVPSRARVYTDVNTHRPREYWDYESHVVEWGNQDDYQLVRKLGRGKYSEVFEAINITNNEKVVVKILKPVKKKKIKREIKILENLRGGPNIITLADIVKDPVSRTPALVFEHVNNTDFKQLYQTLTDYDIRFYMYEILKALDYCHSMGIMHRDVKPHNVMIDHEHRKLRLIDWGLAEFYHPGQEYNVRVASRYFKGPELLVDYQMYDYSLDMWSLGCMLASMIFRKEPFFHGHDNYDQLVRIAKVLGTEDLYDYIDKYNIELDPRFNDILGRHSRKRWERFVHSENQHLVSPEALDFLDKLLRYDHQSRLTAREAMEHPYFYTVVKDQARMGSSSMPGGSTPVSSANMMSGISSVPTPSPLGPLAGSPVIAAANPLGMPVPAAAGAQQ
CK2A1 (CK2α/β), sequence (P67870 whole entry partner, species assumed): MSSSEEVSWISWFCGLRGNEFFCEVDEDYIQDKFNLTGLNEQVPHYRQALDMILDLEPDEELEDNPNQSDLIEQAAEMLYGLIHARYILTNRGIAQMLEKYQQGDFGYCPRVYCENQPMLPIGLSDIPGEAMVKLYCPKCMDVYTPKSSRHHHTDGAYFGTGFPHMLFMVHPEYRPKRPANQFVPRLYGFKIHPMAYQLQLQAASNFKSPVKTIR
As to `COC(=O)N1CC(N2CCN(c3cc(OC(F)F)cc(Nc4nc(NC5CC5)c5ncc(C#N)n5n4)c3Cl)CC2)C1` [Example 562, methyl 3-(4-(2-chloro-3-((7-cyano-4-(cyclopropylamino)imidazo[2,1-f][1,2,4]triazin-2-yl)amino)-5-(difluoromethoxy)phenyl)piperazin-1-yl)azetidine-1-carboxylate], the IC50 worked out at 3.33 nM.

On to `CN(C)C(=O)C1CN(c2cc(C#N)cc(Nc3nc(NC4CC4)c4ncc(C#N)n4n3)c2Cl)CCN1` (stereo not drawn) [Example 563, 4-(2-chloro-5-cyano-3-((7-cyano-4-(cyclopropylamino)imidazo[2,1-f][1,2,4]triazin-2-yl)amino)phenyl)-N,N-dimethylpiperazine-2-carboxamide], for which the IC50 is 0.79 nM.

`CN(C)C(=O)C1CN(c2cc(C#N)cc(Nc3nc(NC4CC4)c4ncc(C#N)n4n3)c2Cl)CCN1C1COC1` (stereo not drawn) [Example 564, 4-(2-chloro-5-cyano-3-((7-cyano-4-(cyclopropylamino)imidazo[2,1-f][1,2,4]triazin-2-yl)amino)phenyl)-N,N-dimethyl-1-(oxetan-3-yl)piperazine-2-carboxamide]: the IC50 worked out at 4.86 nM.

Consider `CN(C)C(=O)C1CN(c2cc(C#N)cc(Nc3nc(NC4CC4)c4ncc(C#N)n4n3)c2Cl)CCN1CC(F)F` (stereo not drawn) [Example 565, 4-(2-chloro-5-cyano-3-((7-cyano-4-(cyclopropylamino)imidazo[2,1-f][1,2,4]triazin-2-yl)amino)phenyl)-1-(2,2-difluoroethyl)-N,N-dimethylpiperazine-2-carboxamide], for which the IC50 is 180 nM.

For the molecule `N#Cc1cc(Nc2nc(NC3CC3)c3ncc(C#N)n3n2)c(Cl)cc1CCCO` [Example 566, 2-((2-chloro-5-cyano-4-(3-hydroxypropyl)phenyl)amino)-4-(cyclopropylamino)imidazo[2,1-f][1,2,4]triazine-7-carbonitrile], the IC50 was 0.1 nM.

In the case of `N#Cc1cc(Nc2nc(NC3CC3)c3ncc(C#N)n3n2)c(Cl)cc1CCCN1CCOCC1` [Example 567, 2-((2-chloro-5-cyano-4-(3-morpholinopropyl)phenyl)amino)-4-(cyclopropylamino)imidazo[2,1-f][1,2,4]triazine-7-carbonitrile], the IC50 was 4.06 nM.

Turning to `CC(C)(O)C1CCN(CCCc2cc(Cl)c(Nc3nc(NC4CC4)c4ncc(C#N)n4n3)cc2C#N)CC1` [Example 568, 2-((2-chloro-5-cyano-4-(3-(4-(2-hydroxypropan-2-yl)piperidin-1-yl)propyl)phenyl)amino)-4-(cyclopropylamino)imidazo[2,1-f][1,2,4]triazine-7-carbonitrile], the IC50 came out at 1.97 nM.

For `N#Cc1cc(Nc2nc(NC3CC3)c3ncc(C#N)n3n2)c(Cl)cc1CCCN1CC(O)C1` [Example 569, 2-((2-chloro-5-cyano-4-(3-(3-hydroxyazetidin-1-yl)propyl)phenyl)amino)-4-(cyclopropylamino)imidazo[2,1-f][1,2,4]triazine-7-carbonitrile], the IC50 is 0.7 nM.

On to `COC1CN(CCCc2cc(Cl)c(Nc3nc(NC4CC4)c4ncc(C#N)n4n3)cc2C#N)C1` [Example 570, 2-((2-chloro-5-cyano-4-(3-(3-methoxyazetidin-1-yl)propyl)phenyl)amino)-4-(cyclopropylamino)imidazo[2,1-f][1,2,4]triazine-7-carbonitrile], for which the IC50 is 1.91 nM.

Regarding `COC1CN(CCCCc2cc(Cl)c(Nc3nc(NC4CC4)c4ncc(C#N)n4n3)cc2C#N)C1` [Example 571, 2-((2-chloro-5-cyano-4-(4-(3-methoxyazetidin-1-yl)butyl)phenyl)amino)-4-(cyclopropylamino)imidazo[2,1-f][1,2,4]triazine-7-carbonitrile], the IC50 is 3.95 nM.

Regarding `N#Cc1cc(Nc2nc(NC3CC3)c3ncc(C#N)n3n2)c(Cl)cc1CCCCN1CCOCC1` [Example 572, 2-((2-chloro-5-cyano-4-(4-morpholinobutyl)phenyl)amino)-4-(cyclopropylamino)imidazo[2,1-f][1,2,4]triazine-7-carbonitrile], the IC50 is 0.66 nM.

As to `CC(CN1CC(O)C1)c1cc(C#N)cc(Nc2nc(NC3CC3)c3ncc(C#N)n3n2)c1Cl` (stereo not drawn) [Example 573, 2-((2-chloro-5-cyano-3-(1-(3-hydroxyazetidin-1-yl)propan-2-yl)phenyl)amino)-4-(cyclopropylamino)imidazo[2,1-f][1,2,4]triazine-7-carbonitrile], the IC50 came to 1.3 nM.

As for `CC(CCO)c1cc(C#N)cc(Nc2nc(NC3CC3)c3ncc(C#N)n3n2)c1Cl` (stereo not drawn) [Example 574, 2-((2-chloro-5-cyano-3-(4-hydroxybutan-2-yl)phenyl)amino)-4-(cyclopropylamino)imidazo[2,1-f][1,2,4]triazine-7-carbonitrile], the IC50 came out at 0.44 nM.

As for `CC(CCN1CC(O)C1)c1cc(C#N)cc(Nc2nc(NC3CC3)c3ncc(C#N)n3n2)c1Cl` (stereo not drawn) [Example 575, 2-((2-chloro-5-cyano-3-(4-(3-hydroxyazetidin-1-yl)butan-2-yl)phenyl)amino)-4-(cyclopropylamino)imidazo[2,1-f][1,2,4]triazine-7-carbonitrile], the IC50 was found to be 0.98 nM.

For `CC(CCNCCC(F)(F)F)c1cc(C#N)cc(Nc2nc(NC3CC3)c3ncc(C#N)n3n2)c1Cl` (stereo not drawn) [Example 576, 2-((2-chloro-5-cyano-3-(4-((3,3,3-trifluoropropyl)amino)butan-2-yl)phenyl)amino)-4-(cyclopropylamino)imidazo[2,1-f][1,2,4]triazine-7-carbonitrile], the IC50 was 1.59 nM.

With `CN1CCN(CCCc2cc(C#N)cc(Nc3nc(NC4CC4)c4ncc(C#N)n4n3)c2Cl)CC1` [Example 577, 2-((2-chloro-5-cyano-3-(3-(4-methylpiperazin-1-yl)propyl)phenyl)amino)-4-(cyclopropylamino)imidazo[2,1-f][1,2,4]triazine-7-carbonitrile], the IC50 was 0.72 nM.

As to `CCNc1nc(Nc2cc(C#N)cc(CCCN3CCN(C)CC3)c2Cl)nn2c(C#N)cnc12` [Example 578, 2-((2-chloro-5-cyano-3-(3-(4-methylpiperazin-1-yl)propyl)phenyl)amino)-4-(ethylamino)imidazo[2,1-f][1,2,4]triazine-7-carbonitrile], the IC50 amounted to 0.99 nM.

`COCCOC(=O)N1CCC(N2CCN(c3cc(C#N)cc(Nc4nc(NC5CC5)c5ncc(C#N)n5n4)c3Cl)CC2)C1` (stereo not drawn) [Example 579, 2-methoxyethyl 3-[4-(2-chloro-5-cyano-3-{[7-cyano-4-(cyclopropylamino)imidazo[2,1-f][1,2,4]triazin-2-yl]amino}phenyl)piperazin-1-yl]pyrrolidine-1-carboxylate]: the IC50 came out at 4.1 nM.

Regarding `N#Cc1cc(Nc2nc(NC3CC3)c3ncc(C#N)n3n2)c(Cl)c(N2CCN(CC3(O)COC3)CC2)c1` [Example 580, 2-[(2-chloro-5-cyano-3-{4-[(3-hydroxyoxetan-3-yl)methyl]piperazin-1-yl}phenyl)amino]-4-(cyclopropylamino)imidazo [2,1-f][1,2,4]triazine-7-carbonitrile], the IC50 is 3.2 nM.

With `N#Cc1cc(Nc2nc(NC3CC3)c3ncc(C#N)n3n2)c(Cl)c(N2CCN(C3CCNC3=O)CC2)c1` (stereo not drawn) [Example 581, 2-({2-chloro-5-cyano-3-[4-(2-oxopyrrolidin-3-yl)piperazin-1-yl]phenyl}amino)-4-(cyclopropylamino)imidazo [2,1-f][1,2,4]triazine-7-carbonitrile], the IC50 was 3.59 nM.

`N#Cc1cc(Nc2nc(NC3CC3)c3ncc(C#N)n3n2)c(Cl)c(N2CCN(C3CCS(=O)(=O)C3)CC2)c1` (stereo not drawn) [Example 582, 2-({2-chloro-5-cyano-3-[4-(1,1-dioxo-1λ^6-thiolan-3-yl)piperazin-1-yl]phenyl}amino)-4-(cyclopropylamino)imidazo [2,1-f][1,2,4]triazine-7-carbonitrile]: the IC50 came out at 5.9 nM.

Consider `CCNc1nc(Nc2cc(C#N)cc(N3CCN(C4CN(C)C4)CC3)c2Cl)nn2c(C#N)cnc12` [Example 583, 2-({2-chloro-5-cyano-3-[4-(1-methylazetidin-3-yl)piperazin-1-yl]phenyl}amino)-4-(ethylamino)imidazo [2,1-f][1,2,4]triazine-7-carbonitrile], for which the IC50 was determined as 2.9 nM.

As to `N#Cc1cc(Nc2nc(NC3CC3)c3ncc(C#N)n3n2)c(Cl)c(N2CCN(C(=O)CN3CCC3)CC2)c1` [Example 584, 2-[(3-{4-[2-(azetidin-1-yl)acetyl]piperazin-1-yl}-2-chloro-5-cyanophenyl)amino]-4-(cyclopropylamino)imidazo [2,1-f][1,2,4]triazine-7-carbonitrile], the IC50 came to 1.54 nM.

Consider `COC1CN(CC(=O)N2CCN(c3cc(C#N)cc(Nc4nc(NC5CC5)c5ncc(C#N)n5n4)c3Cl)CC2)C1` [Example 585, 2-[(2-chloro-5-cyano-3-{4-[2-(3-methoxyazetidin-1-yl)acetyl]piperazin-1-yl}phenyl)amino]-4-(cyclopropylamino)imidazo [2,1-f][1,2,4]triazine-7-carbonitrile], for which the IC50 turned out to be 3.28 nM.

On to `CCNc1nc(Nc2cc(C#N)cc(N3CCN(C4CN(CC(O)CF)C4)CC3)c2Cl)nn2c(C#N)cnc12` (stereo not drawn) [Example 586, 2-[(2-chloro-5-cyano-3-{4-[1-(3-fluoro-2-hydroxypropyl)azetidin-3-yl]piperazin-1-yl}phenyl)amino]-4-(ethylamino)imidazo[2,1-f][1,2,4]triazine-7-carbonitrile], for which the IC50 is 1.58 nM.

On to `N#Cc1cc(Nc2nc(NC3CC3)c3ncc(C#N)n3n2)c(Cl)c(N2CCN(C3CCCC3F)CC2)c1` (stereo not drawn) [Example 587, 2-({2-chloro-5-cyano-3-[4-(2-fluorocyclopentyl)piperazin-1-yl]phenyl}amino)-4-(cyclopropylamino)imidazo [2,1-f][1,2,4]triazine-7-carbonitrile], for which the IC50 is 8.02 nM.

In the case of `C[C@@H](O)CN1CC(N2CCN(c3cc(C#N)cc(Nc4nc(NC5CC5)c5ncc(C#N)n5n4)c3Cl)CC2)C1` [Example 588, 2-{[2-chloro-5-cyano-3-(4-{1-[(2R)-2-hydroxypropyl]azetidin-3-yl}piperazin-1-yl)phenyl]amino}-4-(cyclopropylamino)imidazo [2,1-f][1,2,4]triazine-7-carbonitrile], the IC50 amounted to 3.08 nM.
